The text below walks through data of ChEMBL document CHEMBL1909046, “DrugMatrix in vitro pharmacology data”.

Each structure is given as a SMILES string.

Data set [1] addresses T1, Alpha-2C adrenergic receptor (Homo sapiens, UniProt P18825).
T1 sequence (P18825 whole entry): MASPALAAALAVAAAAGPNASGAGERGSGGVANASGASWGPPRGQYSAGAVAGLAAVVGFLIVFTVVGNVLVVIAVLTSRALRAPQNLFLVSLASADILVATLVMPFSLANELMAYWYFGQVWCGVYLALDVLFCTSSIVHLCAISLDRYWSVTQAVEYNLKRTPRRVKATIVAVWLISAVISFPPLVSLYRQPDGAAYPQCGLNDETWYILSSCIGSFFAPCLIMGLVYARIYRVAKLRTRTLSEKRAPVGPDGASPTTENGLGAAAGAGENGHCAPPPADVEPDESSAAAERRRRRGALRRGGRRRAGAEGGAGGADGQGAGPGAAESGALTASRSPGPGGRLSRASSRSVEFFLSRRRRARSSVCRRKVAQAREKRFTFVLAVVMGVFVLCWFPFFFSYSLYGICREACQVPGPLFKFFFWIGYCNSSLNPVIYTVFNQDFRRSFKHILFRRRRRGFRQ
Description: DRUGMATRIX: Adrenergic Alpha-2C radioligand binding (ligand: [3H] MK-912). It counts as cell membranes, Sf9, Membrane. The settings on record: sf9.

In data set [2] the target is Aldo-keto reductase family 1 member B1 (Rattus norvegicus, UniProt P07943). It counts as tissue-based, Lens of camera-type eye.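 Further: inhibition of aldose reductase enzyme activity, measured with DL-glyceraldehyde as the substrate; in other assays of this panel Not Active means under 50% inhibition at 10 µM.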
The nature of data set [3]: DRUGMATRIX: Tumor Necrosis Factor (TNF), Non-Selective radioligand binding (ligand: [125I] TNF-alpha). It counts as cell membranes, Membrane. The settings on record: u-937; Not Active = under 50% inhibition at 10 µM.
The nature of data set [4]: DRUGMATRIX: Platelet-Derived Growth Factor (PDGF) radioligand binding (ligand: [125I] PDGF). It counts as cell-based. The settings on record: nih3t3; Not Active = under 50% inhibition at 10 µM.
Data set [5] has as its target Beta-2 adrenergic receptor (Homo sapiens, UniProt P07550). Description: DRUGMATRIX: Adrenergic beta2 radioligand binding (ligand: [3H] CGP-12177). To be noted: cho; Not Active = under 50% inhibition at 10 µM. It counts as cell membranes, Membrane.
Data set [6] in a line: DRUGMATRIX: Nicotinic Acetylcholine radioligand binding (ligand: [125I] Epibatidine). To be noted: imr-32; Not Active = under 50% inhibition at 10 µM. The data set is classed as cell membranes, Membrane.
The target in data set [7] is 5-hydroxytryptamine receptor 1B (Rattus norvegicus, UniProt P28564). The data set is classed as cell membranes, Wistar, Cerebral cortex, Membrane. Further: in other assays of this panel Not Active means under 50% inhibition at 10 µM.
Sequence of 5-hydroxytryptamine receptor 1B (P28564 whole entry): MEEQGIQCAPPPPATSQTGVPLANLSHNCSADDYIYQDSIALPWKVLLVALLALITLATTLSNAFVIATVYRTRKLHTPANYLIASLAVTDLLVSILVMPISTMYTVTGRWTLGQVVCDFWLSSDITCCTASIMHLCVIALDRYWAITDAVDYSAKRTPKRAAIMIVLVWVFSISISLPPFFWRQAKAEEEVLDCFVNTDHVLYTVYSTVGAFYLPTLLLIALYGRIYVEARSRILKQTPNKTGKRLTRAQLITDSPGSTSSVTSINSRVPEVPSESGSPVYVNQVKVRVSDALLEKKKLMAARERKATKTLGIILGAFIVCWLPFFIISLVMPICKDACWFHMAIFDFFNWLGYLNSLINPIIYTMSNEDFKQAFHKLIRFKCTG
Another data set has as its target Mu-type opioid receptor (Homo sapiens, UniProt P35372). Briefly: DRUGMATRIX: Opiate mu (OP3, MOP) radioligand binding (ligand: [3H] Diprenorphine). It counts as cell membranes, CHO-K1, Membrane. The settings on record: cho-k1; Not Active = under 50% inhibition at 10 µM.
In data set [8] the target is T2, Vasoactive intestinal polypeptide receptor 1 (Homo sapiens, UniProt P32241). Further: in other assays of this panel Not Active means under 50% inhibition at 10 µM.
T2 sequence (P32241 whole entry): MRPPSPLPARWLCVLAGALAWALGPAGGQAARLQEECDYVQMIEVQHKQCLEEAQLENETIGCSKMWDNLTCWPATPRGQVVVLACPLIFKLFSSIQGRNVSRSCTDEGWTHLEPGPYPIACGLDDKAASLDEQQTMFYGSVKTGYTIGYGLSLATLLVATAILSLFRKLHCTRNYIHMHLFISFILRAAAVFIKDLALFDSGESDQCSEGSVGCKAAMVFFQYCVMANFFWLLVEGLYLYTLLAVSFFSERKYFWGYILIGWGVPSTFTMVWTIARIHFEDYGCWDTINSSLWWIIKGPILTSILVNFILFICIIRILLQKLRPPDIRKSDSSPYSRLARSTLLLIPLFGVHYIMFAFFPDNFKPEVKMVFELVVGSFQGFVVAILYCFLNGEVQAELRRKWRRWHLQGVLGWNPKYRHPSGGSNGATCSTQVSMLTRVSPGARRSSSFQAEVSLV
It counts as cell membranes, Membrane. The settings on record: ht-29.

Data set [9] deals with Mitogen-activated protein kinase 1 (Homo sapiens, UniProt P28482). Briefly: DRUGMATRIX: Protein Serine/Threonine Kinase, ERK2 enzyme inhibition (substrate: Myelin Basic Protein). Details: species or system Escherichia coli. To be noted: Not Active = under 50% inhibition at 10 µM.
Sequence of Mitogen-activated protein kinase 1 (P28482 whole entry): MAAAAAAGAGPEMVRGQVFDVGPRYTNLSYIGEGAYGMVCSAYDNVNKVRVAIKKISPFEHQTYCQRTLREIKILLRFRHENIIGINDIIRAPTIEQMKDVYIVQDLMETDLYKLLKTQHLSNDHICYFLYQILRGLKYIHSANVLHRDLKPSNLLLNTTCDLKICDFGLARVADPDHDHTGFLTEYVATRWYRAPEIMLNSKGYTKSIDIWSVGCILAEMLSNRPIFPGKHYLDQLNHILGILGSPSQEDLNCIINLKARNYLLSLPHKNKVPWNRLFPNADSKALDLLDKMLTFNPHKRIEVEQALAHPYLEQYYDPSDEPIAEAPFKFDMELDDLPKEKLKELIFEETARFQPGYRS
Data set [10] concerns the target T3, Alpha-1D adrenergic receptor (Homo sapiens, UniProt P25100). Further: in other assays of this panel Not Active means under 50% inhibition at 10 µM.
T3 sequence (P25100 whole entry): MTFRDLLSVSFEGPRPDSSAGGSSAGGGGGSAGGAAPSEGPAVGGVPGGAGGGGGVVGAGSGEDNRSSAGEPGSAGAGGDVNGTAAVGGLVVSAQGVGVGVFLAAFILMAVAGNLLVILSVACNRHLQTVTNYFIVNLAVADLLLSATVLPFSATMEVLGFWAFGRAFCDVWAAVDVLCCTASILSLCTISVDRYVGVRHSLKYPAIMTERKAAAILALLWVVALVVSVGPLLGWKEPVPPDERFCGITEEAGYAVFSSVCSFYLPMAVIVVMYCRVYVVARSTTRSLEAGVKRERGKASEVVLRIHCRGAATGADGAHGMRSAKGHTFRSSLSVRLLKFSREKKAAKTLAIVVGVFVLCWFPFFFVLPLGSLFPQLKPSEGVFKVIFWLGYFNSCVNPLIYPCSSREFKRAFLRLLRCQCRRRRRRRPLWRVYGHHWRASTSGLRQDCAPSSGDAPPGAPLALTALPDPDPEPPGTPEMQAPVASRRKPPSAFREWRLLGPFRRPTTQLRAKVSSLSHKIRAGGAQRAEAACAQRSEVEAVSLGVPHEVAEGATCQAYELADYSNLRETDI
It counts as cell membranes, HEK293, Membrane.

The target of the next data set is Cytochrome P450 2E1 (Homo sapiens, UniProt P05181). To be noted: bti-tn-5b1-4. Further: in other assays of this panel Not Active means under 50% inhibition at 10 µM.
Sequence of Cytochrome P450 2E1 (P05181 whole entry): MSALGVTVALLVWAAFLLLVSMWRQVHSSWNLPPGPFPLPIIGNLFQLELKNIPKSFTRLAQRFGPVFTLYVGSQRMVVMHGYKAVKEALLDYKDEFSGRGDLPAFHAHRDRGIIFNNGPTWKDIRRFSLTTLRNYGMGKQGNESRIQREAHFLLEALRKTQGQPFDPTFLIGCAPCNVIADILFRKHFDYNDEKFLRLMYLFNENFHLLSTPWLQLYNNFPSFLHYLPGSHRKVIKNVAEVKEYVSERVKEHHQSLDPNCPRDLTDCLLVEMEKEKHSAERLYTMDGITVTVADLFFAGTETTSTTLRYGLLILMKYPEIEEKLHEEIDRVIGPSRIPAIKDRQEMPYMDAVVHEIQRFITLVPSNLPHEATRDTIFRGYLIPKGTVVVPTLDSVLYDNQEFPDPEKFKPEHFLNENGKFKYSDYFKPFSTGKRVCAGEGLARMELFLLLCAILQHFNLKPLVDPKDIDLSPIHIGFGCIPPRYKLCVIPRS
Another data set concerns the target T4, Cathepsin G (Homo sapiens, UniProt P08311).
T4 sequence (P08311 whole entry): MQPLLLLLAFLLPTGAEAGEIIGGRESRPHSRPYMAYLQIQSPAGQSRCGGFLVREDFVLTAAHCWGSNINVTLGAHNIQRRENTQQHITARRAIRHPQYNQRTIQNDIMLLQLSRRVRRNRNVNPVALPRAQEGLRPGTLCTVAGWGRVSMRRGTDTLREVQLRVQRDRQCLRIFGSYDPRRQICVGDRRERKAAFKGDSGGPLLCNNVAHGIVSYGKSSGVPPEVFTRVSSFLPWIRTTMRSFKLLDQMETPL
It counts as tissue-based. The settings on record: neutrophil.

Sequence of Mu-type opioid receptor (P35372 whole entry): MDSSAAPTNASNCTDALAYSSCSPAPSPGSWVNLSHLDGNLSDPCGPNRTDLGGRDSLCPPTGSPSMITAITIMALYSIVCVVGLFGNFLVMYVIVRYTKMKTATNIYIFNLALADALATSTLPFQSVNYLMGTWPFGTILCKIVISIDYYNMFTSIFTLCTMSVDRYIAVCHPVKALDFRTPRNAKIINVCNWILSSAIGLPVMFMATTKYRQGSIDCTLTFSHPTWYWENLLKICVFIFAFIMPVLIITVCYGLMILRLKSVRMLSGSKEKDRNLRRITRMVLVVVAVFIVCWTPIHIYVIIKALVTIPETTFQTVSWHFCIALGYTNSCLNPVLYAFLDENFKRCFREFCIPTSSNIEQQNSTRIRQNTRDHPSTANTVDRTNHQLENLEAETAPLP
Sequence of Beta-2 adrenergic receptor (P07550 whole entry): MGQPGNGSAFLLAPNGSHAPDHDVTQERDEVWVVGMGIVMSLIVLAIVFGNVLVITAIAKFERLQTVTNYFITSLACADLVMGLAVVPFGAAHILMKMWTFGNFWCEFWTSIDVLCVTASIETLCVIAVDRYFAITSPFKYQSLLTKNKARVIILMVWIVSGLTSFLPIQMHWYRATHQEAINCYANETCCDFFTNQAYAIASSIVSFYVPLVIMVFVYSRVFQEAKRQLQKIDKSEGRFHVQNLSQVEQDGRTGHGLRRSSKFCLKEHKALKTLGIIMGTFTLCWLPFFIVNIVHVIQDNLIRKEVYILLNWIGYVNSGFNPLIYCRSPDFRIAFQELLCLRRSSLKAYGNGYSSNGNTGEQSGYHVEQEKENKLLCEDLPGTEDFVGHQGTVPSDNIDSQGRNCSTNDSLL

Usually IC50 stands for the concentration at which inhibition is half-maximal. For orientation: Ki means a measure of affinity in units of concentration, obtained from inhibition or displacement. For `C[C@]12CCC(=O)C=C1CC[C@@H]1[C@@H]2C(=O)C[C@@]2(C)[C@H]1CC[C@]2(O)C(=O)CO` [CORTISONE], the IC50 result in [1], in data set [2], in data set [3], in data set [4], in data set [5] and in data set [6] was “Not Active” throughout. Further, the IC50 entry (in data set [7]; at Mu-type opioid receptor; in data set [8]; in data set [9]; in data set [10] (hek293); against Cytochrome P450 2E1) was “Not Active” in each case. For the same compound, the IC50 entry on Cathepsin G is recorded as “Not Active”. Further, the Ki entry (in data set [3]; in [4]; in data set [6]; at Cytochrome P450 2E1) was “Not Active” throughout.

On to `Cc1ccccc1N1CCN(CCc2nnc3n2CCCC3)CC1` [DAPIPRAZOLE], for which the IC50 result in data set [1], in [2], in data set [3], in [4], in data set [5] and in [6] was “Not Active” in each case. Besides, the IC50 result in data set [7] is “Not Active”; at Mu-type opioid receptor, “Not Active”; in [8], “Not Active”; in data set [9] it was “Not Active”; in [10] (read-out: IC50), 8.31 nM; against Cytochrome P450 2E1, “Not Active”. Moreover, at Cathepsin G, the IC50 result was “Not Active”. The Ki result is “Not Active” in data set [3]; “Not Active” in data set [4]; “Not Active” in data set [6]; 4.09 nM in data set [10] (read-out: Ki); “Not Active” at Cytochrome P450 2E1.

Regarding `CC1=Nc2ccc(Cl)cc2S(=O)(=O)N1` [DIAZOXIDE], the IC50 entry in data set [1], in [2], in data set [3], in data set [4], in data set [5] and in [6] was “Not Active” in each case. Moreover, the IC50 result (in data set [7]; on Mu-type opioid receptor; in [8]; in data set [9]; in data set [10] (hek293); against Cytochrome P450 2E1) was “Not Active” each time. At Cathepsin G, the IC50 result is “Not Active”. For the same compound, the Ki result (in data set [3]; in data set [4]; in data set [6]; on Cytochrome P450 2E1) was “Not Active” each time.

Consider `CC(=O)OCC(=O)[C@@]1(OC(C)=O)[C@@H](C)C[C@H]2[C@@H]3C[C@H](F)C4=CC(=O)C=C[C@]4(C)[C@@]3(F)[C@@H](O)C[C@@]21C` [DIFLORASONE DIACETATE], for which the 50% inhibitory concentration (IC50) entry in data set [1], in data set [2], in data set [3], in [4], in data set [5] and in data set [6] was “Not Active” throughout. Moreover, the IC50 entry (in data set [7]; at Mu-type opioid receptor; in [8]; in data set [9]; in data set [10] (hek293); on Cytochrome P450 2E1) was “Not Active” throughout. Moreover, the IC50 result against Cathepsin G was “Not Active”. For the same compound, the Ki result (in [3]; in data set [4]; in data set [6]; at Cytochrome P450 2E1) was “Not Active” each time.

For the compound `COc1ccc([C@@H]2Sc3ccccc3N(CCN(C)C)C(=O)[C@@H]2OC(C)=O)cc1` [DILTIAZEM], the IC50 result in data set [1], in [2], in data set [3], in data set [4], in data set [5] and in data set [6] was “Not Active” in each case. Also, the IC50 result (in [7]; on Mu-type opioid receptor; in data set [8]; in [9]; in data set [10] (hek293); against Cytochrome P450 2E1) was “Not Active” throughout. For the same compound, the IC50 entry at Cathepsin G was “Not Active”. The Ki result (in data set [3]; in data set [4]; in data set [6]; on Cytochrome P450 2E1) was “Not Active” in each case.

With `CCc1ccc(C(=O)C(C)CN2CCCCC2)cc1` (stereo not drawn) [EPERISONE], the IC50 result in [1], in data set [2], in data set [3], in [4], in data set [5] and in data set [6] was “Not Active” throughout. The IC50 entry (in data set [7]; on Mu-type opioid receptor; in data set [8]; in [9]; in data set [10] (hek293); at Cytochrome P450 2E1) was “Not Active” throughout. The IC50 entry against Cathepsin G was “Not Active”. The Ki entry (in data set [3]; in [4]; in [6]; at Cytochrome P450 2E1) was “Not Active” each time.
